Laboratory results: patent US11419918B2, “Treatment of biliary cirrhosis based on oxyntomodulin analogue GLP-1R/GCGR dual-target agonist peptide” (Shenzhen Turier Biotech Co., Ltd., priority 2017, dated 2022)
Numbered stars: 1 amine (or outer) side, 2 acyl side, 3 side chain; on linkers, the order of the positions; unused ones are H or OH. Square brackets hold non-standard residues; d marks the D form. Primed or numbered codes have the meaning given here. Side chains are listed from the residue outwards. Ends that are not written are not given here. * marks the point of attachment. C18 diacid = O=C(O)CCCCCCCCCCCCCCCCC(=O)*; γGlu = O=C(O)[C@H](CCC(=O)[*:2])N[*:1]; Stearoyl = CCCCCCCCCCCCCCCCCC(=O)*; Palmitoyl = CCCCCCCCCCCCCCCC(=O)*; Nle = CCCC[C@H](N)C(=O)O; PEG2′ = not defined here; Aib = CC(C)(N)C(=O)O

Experiments:
[1] = tested on: human hepatic stellate cells (LX-2); test: In vitro inhibition of hepatic fibrosis: expression of activation marker α-SMA in LX-2 cells (Western Blot, β-actin internal reference); type: cell-based; settings: 10.0 μM, 48 hours, negative control (PBS) = 100%
Method: Hepatic stellate cell strain LX-2 was selected to study and observe the effect of different doses of test substances on the expression of LX-2 cell activation marker α-SMA. Hepatic stellate cell LX-2 was laid on 35 mm cell culture plate, cultured with DMEM (high glucose)+10% FBS+1% double-antibody culture medium (Thermo Fisher), placed overnight when the cells grew to 70% convergence at 37° C. and under the condition of 5% CO2, and treated with the above GLP-1R/GCGR dual target agonist polypeptides 1-48 (dissolved in PBS) for 48 hours the next day morning to extract cell protein, carry out Western Blot, and take β-actin as internal reference and analyze the expression quantities of α-SMA and β-actin by a gray level of Image J 1.50i. PBS with the same volume as that in experimental group was added in negative control. […] The integrating gray level of α-SMA/β-actin in the negative control group was 100% to analyze the in vitro inhibition activity of hepatic fibrosis of tested polypeptide.

[2] = tested on: BDL-induced cholestasis hepatic fibrosis in rats; test: Bile duct ligation (BDL)-induced hepatic fibrosis in rats (biliary cirrhosis rat model); type: in vivo, SD rats; settings: 50 μg/kg subcutaneous every two days, 14 days
Method: 1. Experimental Drugs: polypeptide compounds 3, 6, 7, 10, 17, 20, 37, 38, 39, 40, 44, 46, Obeticholic Acid (Abbr. OCA, CAS:459789-99-2, purchased from Zhejiang Warrant Pharmaceutical Co., Ltd.) and Liraglutide. Saving condition was −20° C.
128 male SD rats with body weight of 200-230 g were randomly divided into sixteen groups, which were respectively:
SD rats with body weight of 200-230 g at SPF level were provided by Lanzhou University Laboratory Animal Center. After rats were quarantined in the room (SPF environment) for one week, model rat and rat in sham-operated group were subject to intraperitoneal injection and anesthesia with 0.6% pentobarbital sodium solution, and operation was performed on a super clean bench after anesthesia. Bilateral ligation was conducted on model rat after the common bile duct was separated, and ligation was not conducted on rat in sham-operated group, but only the common bile duct was separated. Administration was started from the next day of the operation.
Administration was started from the first day of the operation, and subcutaneous injection of compounds 3, 6, 7, 10, 17, 20, 37, 38, 39, 40, 44, 46 and Liraglutide with 50 μg/kg was performed every two days; intraperitoneal injection for the Obeticholic Acid administration group with 7.5 mg/kg was performed every day; as for the normal saline group, injection was performed every day. During the administration, changes in vital signs of rats were observed every day.
After the end of two weeks of administration cycle (14 days), the rats were killed to collect materials for subsequent biological determination experiments. The livers were taken out for HE dye, Sirius Red dye and IHC dye. Image-pro plus and Graph pad software were used for statistics.

Substance	Relative expression of α-SMA (α-SMA/β-actin, %) [1] [%]	ALT in the serum (FIG. 6) [2]	BDL-induced hepatic fibrosis and inflammation (HE, Sirius Red, IHC sections) [2]	collagenous fiber deposition in liver (Sirius Red dyed sections, FIGS. 2, 4) [2]	content of hydroxyproline of the liver (FIG. 7) [2]	α-SMA in liver (IHC dyed sections, FIGS. 3, 5) [2]
His-(D-Ser)-Gln-Gly-Thr-Phe-Thr-Ser-Asp-Lys(PEG2-PEG2-CO(CH2)14CH3)-Ser-Lys-Tyr-Leu-Asp-Aib-Arg-Arg-Ala-Gln-Asp-Phe-Val-Gln-Trp-Leu-Leu-Asn-Thr-Gly-Gly-Pro-Ser-Ser-Gly-Ala-Pro-Pro-Pro-Ser-NH2 (H[dS]QGTFTSDK([PEG2′-PEG2′-Palmitoyl])SKYLD[Aib]RRAQDFVQWLLNTGGPSSGAPPPS-NH2) [Compound 44]	39.19	significantly inhibit	significantly reduce	significantly inhibit	significantly inhibit	significantly inhibit
His-(D-Ser)-Gln-Gly-Thr-Phe-Thr-Ser-Asp-Lys(PEG2-PEG2-CO(CH2)16CO2H-Ser-Lys-Tyr-Leu-Asp-Aib-Arg-Arg-Ala-Gln-Asp-Phe-Val-Gln-Trp-Leu-Nle-Asn-Thr-Gly-Gly-Pro-Ser-Ser-Gly-Ala-Pro-Pro-Pro-Ser-NH2 (H[dS]QGTFTSDK([PEG2′-PEG2′-C18 diacid])SKYLD[Aib]RRAQDFVQWL[Nle]NTGGPSSGAPPPS-NH2) [Compound 46]	36.84	significantly inhibit	significantly reduce	significantly inhibit	significantly inhibit	significantly inhibit
His-(D-Ser)-Gln-Gly-Thr-Phe-Thr-Ser-Asp-Tyr-Ser-Lys(PEG2-PEG2-CO(CH2)16CH3)-Lys-Leu-Asp-Aib-Arg-Arg-Ala-Gln-Asp-Phe-Val-Gln-Trp-Leu-Met-Asn-Thr-Gly-Gly-Pro-Ser-Ser-Gly-Ala-Pro-Pro-Pro-Ser-NH2 (H[dS]QGTFTSDYSK([PEG2′-PEG2′-Stearoyl])KLD[Aib]RRAQDFVQWLMNTGGPSSGAPPPS-NH2) [Compound 3]	32.25	significantly inhibit	significantly reduce	significantly inhibit	significantly inhibit	significantly inhibit
His-(D-Ser)-Gln-Gly-Thr-Phe-Thr-Ser-Asp-Tyr-Ser-Lys(PEG2-PEG2-γGlu-CO(CH2)16CO2H)-Lys-Leu-Asp-Aib-Arg-Arg-Ala-Gln-Asp-Phe-Val-Gln-Trp-Leu-Met-Asn-Thr-Gly-Gly-Pro-Ser-Ser-Gly-Ala-Pro-Pro-Pro-Ser-NH2 (H[dS]QGTFTSDYSK([PEG2′-PEG2′-γGlu-C18 diacid])KLD[Aib]RRAQDFVQWLMNTGGPSSGAPPPS-NH2) [Compound 20]	28.39	significantly inhibit	significantly reduce	significantly inhibit	significantly inhibit	significantly inhibit
His-(D-Ser)-Gln-Gly-Thr-Phe-Thr-Ser-Asp-Tyr-Ser-Lys-Tyr-Leu-Asp-Aib-Lys(PEG2-PEG2-CO(CH2)16CO2H)-Arg-Ala-Gln-Asp-Phe-Val-Gln-Trp-Leu-Met-Asn-Thr-Gly-Gly-Pro-Ser-Ser-Gly-Ala-Pro-Pro-Pro-Ser-NH2 (H[dS]QGTFTSDYSKYLD[Aib]K([PEG2′-PEG2′-C18 diacid])RAQDFVQWLMNTGGPSSGAPPPS-NH2) [Compound 10]	39.49	significantly inhibit	significantly reduce	significantly inhibit	significantly inhibit	significantly inhibit
His-(D-Ser)-Gln-Gly-Thr-Phe-Thr-Ser-Asp-Tyr-Ser-Lys-Tyr-Leu-Asp-Aib-Lys(PEG2-PEG2-γGlu-CO(CH2)16CO2H)-Arg-Ala-Gln-Asp-Phe-Val-Gln-Trp-Leu-Met-Asn-Thr-Gly-Gly-Pro-Ser-Ser-Gly-Ala-Pro-Pro-Pro-Ser-NH2 (H[dS]QGTFTSDYSKYLD[Aib]K([PEG2′-PEG2′-γGlu-C18 diacid])RAQDFVQWLMNTGGPSSGAPPPS-NH2) [Compound 7]	40.52	significantly inhibit	significantly reduce	significantly inhibit	significantly inhibit	significantly inhibit
His-(D-Ser)-Gln-Gly-Thr-Phe-Thr-Ser-Asp-Tyr-Ser-Lys-Tyr-Leu-Asp-Lys(PEG2-PEG2-γGlu-CO(CH2)14CH3)-Arg-Arg-Ala-Gln-Asp-Phe-Val-Gln-Trp-Leu-Leu-Asn-Thr-Gly-Gly-Pro-Ser-Ser-Gly-Ala-Pro-Pro-Pro-Ser-NH2 (H[dS]QGTFTSDYSKYLDK([PEG2′-PEG2′-γGlu-Palmitoyl])RRAQDFVQWLLNTGGPSSGAPPPS-NH2) [Compound 40]	37.55	significantly inhibit	significantly reduce	significantly inhibit	significantly inhibit	significantly inhibit
His-(D-Ser)-Gln-Gly-Thr-Phe-Thr-Ser-Asp-Tyr-Ser-Lys-Tyr-Leu-Asp-Lys(PEG2-PEG2-γGlu-CO(CH2)14CH3)-Arg-Arg-Ala-Gln-Asp-Phe-Val-Gln-Trp-Leu-Met-Asn-Thr-Gly-Gly-Pro-Ser-Ser-Gly-Ala-Pro-Pro-Pro-Ser-NH2 (H[dS]QGTFTSDYSKYLDK([PEG2′-PEG2′-γGlu-Palmitoyl])RRAQDFVQWLMNTGGPSSGAPPPS-NH2) [Compound 6]	29.19	significantly inhibit	significantly reduce	significantly inhibit	significantly inhibit	significantly inhibit
His-(D-Ser)-Gln-Gly-Thr-Phe-Thr-Ser-Asp-Tyr-Ser-Lys-Tyr-Leu-Asp-Lys(PEG2-PEG2-γGlu-CO(CH2)14CH3)-Arg-Arg-Ala-Gln-Asp-Phe-Val-Gln-Trp-Leu-Nle-Asn-Thr-Gly-Gly-Pro-Ser-Ser-Gly-Ala-Pro-Pro-Pro-Ser-NH2 (H[dS]QGTFTSDYSKYLDK([PEG2′-PEG2′-γGlu-Palmitoyl])RRAQDFVQWL[Nle]NTGGPSSGAPPPS-NH2) [Compound 37]	29.95	significantly inhibit	significantly reduce	significantly inhibit	significantly inhibit	significantly inhibit
His-(D-Ser)-Gln-Gly-Thr-Phe-Thr-Ser-Asp-Tyr-Ser-Lys-Tyr-Leu-Asp-Lys(PEG2-PEG2-γGlu-CO(CH2)16CO2H)-Arg-Arg-Ala-Gln-Asp-Phe-Val-Gln-Trp-Leu-Leu-Asn-Thr-Gly-Gly-Pro-Ser-Ser-Gly-Ala-Pro-Pro-Pro-Ser-NH2 (H[dS]QGTFTSDYSKYLDK([PEG2′-PEG2′-γGlu-C18 diacid])RRAQDFVQWLLNTGGPSSGAPPPS-NH2) [Compound 39]	41.68	significantly inhibit	significantly reduce	significantly inhibit	significantly inhibit	significantly inhibit
